According to US7776873B2, “Method for treating damage to gastric mucosa” (Yuhan Corporation, priority 2005, dated 2010):

Columns and labels:
[1] = tested on: human gastric epithelial (AGS) cells infected with H. pylori (ATCC 43504); test: Incidence of H. pylori-induced cell death (MTT assay-1); format: cell-based; details: 50 uM pretreatment for 16 hours, then 48-hour H. pylori infection, FIG. 1
Method: In order to determine cytoprotective properties of revaprazan against H. pylori infection, gastric mucosal cells were pretreated with revaprazan and rebamipide prior to H. pylori infection, and the incidence of cell death was measured. Rebamipide, known to have cytoprotective properties, was used as a control drug.
The human gastric epithelial (AGS, KCLB 21739) cells were seeded onto 96-well plate at 5×10^4 cells/ml and cultured in RPMI 1640 (Gibco BRL, Grand Island, N.Y., U.S.A.), supplemented with 100 units/mL penicillin, 100 ug/mL streptomycin, and 10% FBS (Fetal Bovine Serum). Revaprazan and rebamipide, dissolved in sterilized water, were added to AGS cells to reach a final concentration of 50 uM and the cells were incubated at 37° C. for 16 hours. To remove RPMI 1640 media, the plate was centrifuged at 24° C., 3000 rpm for 5 minutes and washed three times with PBS (137 mM NaCl, 2.7 mM KCl, 10 mM Na2HPO4, and 2 mM KH2PO4). For inoculation, H. pylori (ATCC 43504) cultures were resuspended in PBS and cocultured with AGS cells at a final concentration of 5×10^8 CFU/ml. After 48 hours of incubation at 37° C., the culture was centrifuged at 24° C., 3000 rpm for 5 minutes to remove the culture medium, i.e., RPMI 1640, and then total viable cell numbers were assessed by MTT (3-[4,5-dimethylthiazol-2-yl]-2,5-diphenyl tetrazolim bromide) assay method. 1 mg/ml of an MTT solution prepared by dissolving MTT (Amresco, Ohio, U.S.A.) in PBS (137 mM NaCl, 2.7 mM KCl, 10 mM Na2HPO4, and 2 mM KH2PO4) was added to each well (50 μl/well), followed by incubation at 37° C. for 4 hours. The supernatant was then removed by centrifugation at 24° C., 3000 rpm for 5 minutes and the formazan grains formed by the viable cells were dissolved in 99.5% dimethyl sulfoxide (DMSO) (Kanto, Tokyo, Japan) (50 μl/well), and the optical intensity was measured at 540 nm using an ELISA reader (TECAN, Maennedorf, Switzerland).

[2] = tested on: rat gastric mucosal (RGM-1) cells; test: Incidence of ethanol-induced cell death (MTT assay-2); format: cell-based; details: 50 uM pretreatment for 16 hours, then 200 mM ethanol for 16 hours, FIG. 2
Method: The rat gastric mucosal (RGM-1, RIKEN cell bank, Japan) cells were seeded onto 96-well plate at 5×10^4 cells/ml and cultured in DMEM-F12 (Gibco BRL, Grand Island, N.Y., U.S.A.), supplemented with 100 units/mL penicillin, 100 ug/mL streptomycin, and 10% FBS (Fetal Bovine Serum). […] To remove DMEM-F12 media, the plate was centrifuged at 24° C., 3000 rpm for 5 minutes and washed three times with PBS (137 mM NaCl, 2.7 mM KCl, 10 mM Na2HPO4, and 2 mM KH2PO4). Then, ethanol-containing media (200 mM ethanol-containing DMEM-F12, supplemented with 100 units/mL penicillin, 100 ug/mL streptomycin, and 10% FBS) was added to the cells, and the cells were cultured at 37° C. for 16 hours. After the incubation, the culture was centrifuged at 24° C., 3000 rpm for 5 minutes to remove the culture medium and then total viable cell numbers were assessed by MTT (3-[4,5-dimethylthiazol-2-yl]-2,5-diphenyl tetrazolim bromide) assay method. 1 mg/ml of an MTT solution prepared by dissolving MTT (Amresco, Ohio, U.S.A.) in PBS (137 mM NaCl, 2.7 mM KCl, 10 mM Na2HPO4, and 2 mM KH2PO4) was added to each well (50 μl/well), followed by incubation at 37° C. for 4 hours. The supernatant was then removed by centrifugation at 24° C., 3000 rpm for 5 minutes and the formazan grains formed by the viable cells were dissolved in 99.5% dimethylsulfoxide (DMSO) (Kanto, Tokyo, Japan) (50 μl/well), and the optical intensity was measured at 540 nm using an ELISA reader (TECAN, Maennedorf, Switzerland).

[3] = tested on: indomethacin-induced gastric mucosal lesions; test: Preventive effect on NSAID-induced gastropathy; format: in vivo, Sprague Dawley male rats; details: rats, oro-gastric pretreatment (revaprazan 5, 10 mg/kg; rebamipide 30 mg/kg; omeprazole 5 mg/kg) prior to indomethacin 40 mg/kg for 12 hrs, FIG. 8
Method: Six-week old specific-pathogen-free (SPF) Sprague Dawley male rats (Charles River, Tokyo, Japan) were used for experiments. The rats were fed a sterilized commercial pellet diet (Biogenomics Co., Seoul, Korea), given sterile water ad libitum, and housed in air-conditioned biohazard room with a 12-h light:12-h dark cycle. The rats were food-deprived 24 hours, and then administered with 5, 10 mg/kg revaprazan, 30 mg/kg rebamipide and 5 mg/kg omeprazole suspended in 0.5% CMC (carboxymethylcellulose) via oro-gastric tube prior to exposure to indomethacin (40 mg/kg for 12 hrs). Phosphate-buffered saline was perfused into the gastric lumen of the rats to swell the stomachs. Then, the stomachs were opened by an incision along the greater curvature, and the total area of the gastric mucosal lesions was calculated to obtain the average size of the lesions.

## O=C(NC(Cc1cc(=O)[nH]c2ccccc12)C(=O)O)c1ccc(Cl)cc1 (stereo not drawn) [rebamipide, reference compound]
[1]
  gastric mucosal cytotoxicity by H. pylori infection: significantly reduced
[2]
  ethanol-induced gastric mucosal cytotoxicity: significantly reduced
[3]
  hemorrhagic gastric mucosal lesions after pretreatment: hemorrhagic lesions are observed
